Data published in patent publication US8952163B2, “Substituted hydroxamic acids and uses thereof” (Millennium Pharmaceuticals, Inc., priority 2010, dated 2015).

Target: T1, purified human HDAC6 (Homo sapiens, UniProt Q9UBN7)
T1 construct: purchased BPS Bioscience 5006
T1 sequence (Q9UBN7 1-1215): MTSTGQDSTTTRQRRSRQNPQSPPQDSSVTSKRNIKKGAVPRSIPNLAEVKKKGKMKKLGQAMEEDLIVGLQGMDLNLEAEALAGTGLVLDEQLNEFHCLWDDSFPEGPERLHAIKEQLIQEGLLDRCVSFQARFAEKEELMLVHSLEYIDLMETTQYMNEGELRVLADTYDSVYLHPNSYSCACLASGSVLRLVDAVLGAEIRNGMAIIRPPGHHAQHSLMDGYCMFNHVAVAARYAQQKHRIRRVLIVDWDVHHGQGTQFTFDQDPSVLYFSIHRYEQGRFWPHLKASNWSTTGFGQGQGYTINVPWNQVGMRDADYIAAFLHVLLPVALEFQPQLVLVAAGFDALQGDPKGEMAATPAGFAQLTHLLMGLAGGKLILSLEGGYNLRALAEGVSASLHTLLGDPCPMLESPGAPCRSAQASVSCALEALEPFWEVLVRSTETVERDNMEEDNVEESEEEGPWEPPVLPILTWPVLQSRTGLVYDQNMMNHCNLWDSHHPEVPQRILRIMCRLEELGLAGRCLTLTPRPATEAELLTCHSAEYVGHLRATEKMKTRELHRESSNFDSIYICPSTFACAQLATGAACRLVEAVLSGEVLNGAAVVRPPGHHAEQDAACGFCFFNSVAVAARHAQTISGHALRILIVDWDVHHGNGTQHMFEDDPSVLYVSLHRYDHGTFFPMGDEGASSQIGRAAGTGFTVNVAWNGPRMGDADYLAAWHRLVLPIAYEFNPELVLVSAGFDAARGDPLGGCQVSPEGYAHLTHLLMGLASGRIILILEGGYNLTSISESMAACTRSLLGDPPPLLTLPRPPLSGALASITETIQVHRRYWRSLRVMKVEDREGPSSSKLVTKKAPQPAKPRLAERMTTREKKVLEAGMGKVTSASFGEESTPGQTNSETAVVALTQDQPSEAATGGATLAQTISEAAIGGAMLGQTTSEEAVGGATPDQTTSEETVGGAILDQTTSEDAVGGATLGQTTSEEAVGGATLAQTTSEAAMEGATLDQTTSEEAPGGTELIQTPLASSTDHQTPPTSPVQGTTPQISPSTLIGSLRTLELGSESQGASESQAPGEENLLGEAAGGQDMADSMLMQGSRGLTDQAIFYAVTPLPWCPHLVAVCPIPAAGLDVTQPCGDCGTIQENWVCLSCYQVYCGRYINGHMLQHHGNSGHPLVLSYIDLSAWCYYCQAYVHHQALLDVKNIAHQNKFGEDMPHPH
Assay: HDAC6 Enzyme Assay
Type: biochemical
Conditions: test compound at 1.235 μM; substrate Ac-Arg-Gly-Lys(Ac)-AMC, 1 hour at 30° C.; read-out: Percent Inhibition at 1.235 μM
Method: To measure the inhibition of HDAC6 activity, purified human HDAC6 (BPS Bioscience; Cat. No. 5006) is incubated with substrate Ac-Arg-Gly-Lys(Ac)-AMC peptide (Bachem Biosciences; Cat. No. I-1925) for 1 hour at 30° C. in the presence of test compounds or vehicle DMSO control. The reaction is stopped with the HDAC inhibitor trichostatin A (Sigma; Cat. No. T8552) and the amount of Arg-Gly-Lys-AMC generated is quantitated by digestion with trypsin (Sigma; Cat. No. T1426) and subsequent measurement of the amount of AMC released using a fluorescent plate reader (Pherastar, BMG Technologies) set at Ex 340 nm and Em 460 nm. Concentration response curves are generated by calculating the fluorescence increase in test compound-treated samples relative to DMSO-treated controls, and percentage inhibition values at a single concentration or enzyme inhibition (IC50) values are determined from those curves. One skilled in the art will appreciate that the values generated either as percentage inhibition at a single concentration or IC50 values are subject to experimental variation.

SMILES	inhibition at 1.235 µM [%]
CCCNC(=O)N1CCc2nc(C(=O)NO)ccc2C1 [Compound I-36, N^2-hydroxy-N^6-propyl-7,8-dihydro-1,6-naphthyridine-2,6(5H)-dicarboxamide]	26.5
O=C(NO)c1ccc2c(n1)CCN(C(=O)c1cc3ccccc3o1)C2 [Compound I-14, 6-(1-benzofuran-2-ylcarbonyl)-N-hydroxy-5,6,7,8-tetrahydro-1,6-naphthyridine-2-carboxamide]	89.9
O=C(NO)c1ccc2c(n1)CCN(C(=O)NCc1ccccc1)C2 [Compound I-25, N^6-benzyl-N^2-hydroxy-7,8-dihydro-1,6-naphthyridine-2,6(5H)-dicarboxamide]	60.4
COc1ccc(C(=O)N2CCc3nc(C(=O)NO)ccc3C2)cc1 [Compound I-35, N-hydroxy-6-(4-methoxybenzoyl)-5,6,7,8-tetrahydro-1,6-naphthyridine-2-carboxamide]	67
CC(C)(C)NC(=O)N1CCc2nc(C(=O)NO)ccc2C1 [Compound I-45, N^6-(tert-butyl)-N^2-hydroxy-7,8-dihydro-1,6-naphthyridine-2,6(5H)-dicarboxamide]	39
CCCCOc1ccc(S(=O)(=O)N2CCc3nc(C(=O)NO)ccc3C2)cc1 [Compound I-60, 6-[(4-butoxyphenyl)sulfonyl]-N-hydroxy-5,6,7,8-tetrahydro-1,6-naphthyridine-2-carboxamide]	75.8
CCCCS(=O)(=O)N1CCc2nc(C(=O)NO)ccc2C1 [Compound I-61, 6-(butylsulfonyl)-N-hydroxy-5,6,7,8-tetrahydro-1,6-naphthyridine-2-carboxamide]	-3.95
O=C(NO)c1cnc2c(c1)CN(S(=O)(=O)c1ccc(C(F)(F)F)cc1)CC2 [Compound I-62, N-hydroxy-6-{[4-(trifluoromethyl)phenyl]sulfonyl}-5,6,7,8-tetrahydro-1,6-naphthyridine-3-carboxamide]	94.7
O=C(NO)c1ccc2c(n1)CCN(C(=O)c1[nH]c3ccccc3c1-c1ccccc1)C2 [Compound I-7, N-hydroxy-6-[(3-phenyl-1H-indol-2-yl)carbonyl]-5,6,7,8-tetrahydro-1,6-naphthyridine-2-carboxamide]	79
CCC(C)NC(=O)N1CCc2nc(C(=O)NO)ccc2C1 (stereo not drawn) [Compound I-16, N^6-(sec-butyl)-N^2-hydroxy-7,8-dihydro-1,6-naphthyridine-2,6(5H)-dicarboxamide]	27.3
O=C(NO)c1cnc2c(c1)CN(C(=O)c1ccc(-c3ccccc3)cc1)CC2 [Compound I-53, 6-(biphenyl-4-ylcarbonyl)-N-hydroxy-5,6,7,8-tetrahydro-1,6-naphthyridine-3-carboxamide]	96.9
O=C(NO)c1ccc2c(n1)CCN(C(=O)Nc1ccccc1)C2 [Compound I-51, N^2-hydroxy-N^6-phenyl-7,8-dihydro-1,6-naphthyridine-2,6(5H)-dicarboxamide]	63.4
CCCCS(=O)(=O)N1CCc2ncc(C(=O)NO)cc2C1 [Compound I-58, 6-(butylsulfonyl)-N-hydroxy-5,6,7,8-tetrahydro-1,6-naphthyridine-3-carboxamide]	94.5
Cc1nc(-c2ccccn2)sc1C(=O)N1CCc2nc(C(=O)NO)ccc2C1 [Compound I-6, N-hydroxy-6-[(4-methyl-2-pyridin-2-yl-1,3-thiazol-5-yl)carbonyl]-5,6,7,8-tetrahydro-1,6-naphthyridine-2-carboxamide]	81.4
Cn1cccc1C(=O)N1CCc2nc(C(=O)NO)ccc2C1 [Compound I-11, N-hydroxy-6-[(1-methyl-1H-pyrrol-2-yl)carbonyl]-5,6,7,8-tetrahydro-1,6-naphthyridine-2-carboxamide]	73.9
Cc1ccccc1NC(=O)N1CCc2nc(C(=O)NO)ccc2C1 [Compound I-8, N^2-hydroxy-N^6-(2-methylphenyl)-7,8-dihydro-1,6-naphthyridine-2,6(5H)-dicarboxamide]	40.4

Other lines, results leading:

inhibition at 1.235 µM [%]	SMILES
97.4	O=C(NO)c1cnc2c(c1)CN(C(=O)c1cc3ccccc3s1)CC2 [Compound I-52, 6-(1-benzothien-2-ylcarbonyl)-N-hydroxy-5,6,7,8-tetrahydro-1,6-naphthyridine-3-carboxamide]
94.5	O=C(NO)c1cnc2c(c1)CN(C(=O)c1ccc(Cl)cc1)CC2 [Compound I-12, 6-(4-chlorobenzoyl)-N-hydroxy-5,6,7,8-tetrahydro-1,6-naphthyridine-3-carboxamide]
94.9	O=C(NO)c1cnc2c(c1)CN(C(=O)c1cc3ccccc3o1)CC2 [Compound I-44, 6-(1-benzofuran-2-ylcarbonyl)-N-hydroxy-5,6,7,8-tetrahydro-1,6-naphthyridine-3-carboxamide]
51.2	Cc1nc(C(=O)N2CCc3nc(C(=O)NO)ccc3C2)cs1 [Compound I-27, N-hydroxy-6-[(2-methyl-1,3-thiazol-4-yl)carbonyl]-5,6,7,8-tetrahydro-1,6-naphthyridine-2-carboxamide]
93	CC1(C(=O)N2CCc3ncc(C(=O)NO)cc3C2)CCCCC1 [Compound I-56, N-hydroxy-6-[(1-methylcyclohexyl)carbonyl]-5,6,7,8-tetrahydro-1,6-naphthyridine-3-carboxamide]
97.2	O=C(NO)c1cnc2c(c1)CCN(C(=O)c1cc3ccccc3s1)C2 [Compound I-4, 7-(1-benzothien-2-ylcarbonyl)-N-hydroxy-5,6,7,8-tetrahydro-1,7-naphthyridine-3-carboxamide]
97.2	O=C(NO)c1cnc2c(c1)CCN(C(=O)c1cc3ccccc3o1)C2 [Compound I-18, 7-(1-benzofuran-2-ylcarbonyl)-N-hydroxy-5,6,7,8-tetrahydro-1,7-naphthyridine-3-carboxamide]
91.1	COc1ccc(C(=O)N2CCc3cc(C(=O)NO)cnc3C2)cc1 [Compound I-48, N-hydroxy-7-(4-methoxybenzoyl)-5,6,7,8-tetrahydro-1,7-naphthyridine-3-carboxamide]
93	COc1ccc(C(=O)N2CCc3ncc(C(=O)NO)cc3C2)cc1 [Compound I-32, N-hydroxy-6-(4-methoxybenzoyl)-5,6,7,8-tetrahydro-1,6-naphthyridine-3-carboxamide]
87.8	Cc1nc(C(=O)N2CCc3ncc(C(=O)NO)cc3C2)cs1 [Compound I-1, N-hydroxy-6-[(2-methyl-1,3-thiazol-4-yl)carbonyl]-5,6,7,8-tetrahydro-1,6-naphthyridine-3-carboxamide]
93.4	O=C(NO)c1cnc2c(c1)CN(C(=O)c1sc3ccccc3c1Cl)CC2 [Compound I-5, 6-[(3-chloro-1-benzothien-2-yl)carbonyl]-N-hydroxy-5,6,7,8-tetrahydro-1,6-naphthyridine-3-carboxamide]
91.9	O=C(NO)c1cnc2c(c1)CCN(C(=O)c1ccc(Cl)cc1)C2 [Compound I-28, 7-(4-chlorobenzoyl)-N-hydroxy-5,6,7,8-tetrahydro-1,7-naphthyridine-3-carboxamide]
92.5	Cn1cccc1C(=O)N1CCc2ncc(C(=O)NO)cc2C1 [Compound I-39, N-hydroxy-6-[(1-methyl-1H-pyrrol-2-yl)carbonyl]-5,6,7,8-tetrahydro-1,6-naphthyridine-3-carboxamide]
84.6	Cc1nc(C(=O)N2CCc3cc(C(=O)NO)cnc3C2)cs1 [Compound I-10, N-hydroxy-7-[(2-methyl-1,3-thiazol-4-yl)carbonyl]-5,6,7,8-tetrahydro-1,7-naphthyridine-3-carboxamide]
